In the NIST ThermoML archive (doi:10.1016/j.fluid.2016.10.026):

Details: for surface tension liquid-gas: Drop volume; for kinematic viscosity / speed of sound / mass density: Liquid; for kinematic viscosity: Capillary tube (Ostwald / Ubbelohde) method; for speed of sound: Frequency=3 MHz, Sing-around technique in a fixed-path interferometer; for mass density: Vibrating tube method

CC(=O)c1cccs1 [2-acetylthiophene]
Details	surface tension liquid-gas [mN/m]
278.15 K	45.41
280.65 K	45.14
283.15 K	44.83
285.65 K	44.58
288.15 K	44.31
290.65 K	44.01
293.15 K	43.73
295.65 K	43.46
298.15 K	43.16
300.65 K	42.86
303.15 K	42.59
305.65 K	42.31
308.15 K	42.03
310.65 K	41.72
313.15 K	41.43

Details	kinematic viscosity [m2/s]	mass density [kg/m3]	speed of sound [m/s]
278.15 K, 101 kPa	3.7e-06	1185.43	1538.3
280.65 K, 101 kPa	3.44e-06	1183.04	1529.7
283.15 K, 100 kPa	–	1180.61	–
283.15 K, 101 kPa	3.21e-06	1180.64	1521.2
283.15 K, 2000 kPa	–	1181.78	–
283.15 K, 5000 kPa	–	1183.44	–
283.15 K, 7000 kPa	–	1184.54	–
283.15 K, 10000 kPa	–	1186.17	–
283.15 K, 15000 kPa	–	1188.81	–
283.15 K, 20000 kPa	–	1191.4	–
283.15 K, 25000 kPa	–	1193.92	–
283.15 K, 30000 kPa	–	1196.37	–
283.15 K, 35000 kPa	–	1198.77	–
283.15 K, 40000 kPa	–	1201.11	–
283.15 K, 45000 kPa	–	1203.39	–
285.65 K, 101 kPa	3e-06	1178.25	1512.7
288.15 K, 100 kPa	–	1175.97	–
288.15 K, 101 kPa	2.81e-06	1175.86	1503.9
288.15 K, 2000 kPa	–	1177.04	–
288.15 K, 5000 kPa	–	1178.73	–
288.15 K, 7000 kPa	–	1179.85	–
288.15 K, 10000 kPa	–	1181.52	–
288.15 K, 15000 kPa	–	1184.21	–
288.15 K, 20000 kPa	–	1186.85	–
288.15 K, 25000 kPa	–	1189.43	–
288.15 K, 30000 kPa	–	1191.93	–
288.15 K, 35000 kPa	–	1194.37	–
288.15 K, 40000 kPa	–	1196.76	–
288.15 K, 45000 kPa	–	1199.09	–
290.65 K, 101 kPa	2.64e-06	1173.47	1495
293.15 K, 100 kPa	–	1171	–
293.15 K, 101 kPa	2.51e-06	1171.07	1486.3
293.15 K, 2000 kPa	–	1172.28	–
293.15 K, 5000 kPa	–	1174.02	–
293.15 K, 7000 kPa	–	1175.16	–
293.15 K, 10000 kPa	–	1176.85	–
293.15 K, 15000 kPa	–	1179.61	–
293.15 K, 20000 kPa	–	1182.3	–
293.15 K, 25000 kPa	–	1184.93	–
293.15 K, 30000 kPa	–	1187.48	–
293.15 K, 35000 kPa	–	1189.98	–
293.15 K, 40000 kPa	–	1192.41	–
293.15 K, 45000 kPa	–	1194.78	–
293.15 K, 50000 kPa	–	1197.1	–
293.15 K, 55000 kPa	–	1199.35	–
293.15 K, 60000 kPa	–	1201.56	–
293.15 K, 65000 kPa	–	1203.71	–
295.65 K, 101 kPa	2.35e-06	1168.68	1477.8
298.15 K, 100 kPa	–	1166.24	–
298.15 K, 101 kPa	2.22e-06	1166.29	1469
298.15 K, 2000 kPa	–	1167.52	–
298.15 K, 5000 kPa	–	1169.28	–
298.15 K, 7000 kPa	–	1170.46	–
298.15 K, 10000 kPa	–	1172.2	–
298.15 K, 15000 kPa	–	1175.02	–
298.15 K, 20000 kPa	–	1177.77	–
298.15 K, 25000 kPa	–	1180.44	–
298.15 K, 30000 kPa	–	1183.06	–
298.15 K, 35000 kPa	–	1185.59	–
298.15 K, 40000 kPa	–	1188.08	–
298.15 K, 45000 kPa	–	1190.5	–
298.15 K, 50000 kPa	–	1192.87	–
298.15 K, 55000 kPa	–	1195.17	–
298.15 K, 60000 kPa	–	1197.42	–
298.15 K, 65000 kPa	–	1199.61	–
300.65 K, 101 kPa	2.1e-06	1163.91	1460.5
303.15 K, 100 kPa	–	1161.59	–
303.15 K, 101 kPa	1.99e-06	1161.52	1451.8
303.15 K, 2000 kPa	–	1162.77	–
303.15 K, 5000 kPa	–	1164.6	–
303.15 K, 7000 kPa	–	1165.79	–
303.15 K, 10000 kPa	–	1167.56	–
303.15 K, 15000 kPa	–	1170.45	–
303.15 K, 20000 kPa	–	1173.26	–
303.15 K, 25000 kPa	–	1175.98	–
303.15 K, 30000 kPa	–	1178.65	–
303.15 K, 35000 kPa	–	1181.25	–
303.15 K, 40000 kPa	–	1183.77	–
303.15 K, 45000 kPa	–	1186.24	–
303.15 K, 50000 kPa	–	1188.64	–
303.15 K, 55000 kPa	–	1190.99	–
303.15 K, 60000 kPa	–	1193.27	–
303.15 K, 65000 kPa	–	1195.5	–
305.65 K, 101 kPa	1.9e-06	1159.13	1443.2
308.15 K, 100 kPa	–	1156.84	–
308.15 K, 101 kPa	1.81e-06	1156.74	1434.8
308.15 K, 2000 kPa	–	1158.03	–
308.15 K, 5000 kPa	–	1159.89	–
308.15 K, 7000 kPa	–	1161.11	–
308.15 K, 10000 kPa	–	1162.92	–
308.15 K, 15000 kPa	–	1165.87	–
308.15 K, 20000 kPa	–	1168.75	–
308.15 K, 25000 kPa	–	1171.53	–
308.15 K, 30000 kPa	–	1174.24	–
308.15 K, 35000 kPa	–	1176.89	–
308.15 K, 40000 kPa	–	1179.46	–
308.15 K, 45000 kPa	–	1181.98	–
308.15 K, 50000 kPa	–	1184.43	–
308.15 K, 55000 kPa	–	1186.82	–
308.15 K, 60000 kPa	–	1189.15	–
308.15 K, 65000 kPa	–	1191.41	–
310.65 K, 101 kPa	1.72e-06	1154.35	1426.1
313.15 K, 100 kPa	–	1152.05	–
313.15 K, 101 kPa	1.65e-06	1151.96	1417.5
313.15 K, 2000 kPa	–	1153.3	–
313.15 K, 5000 kPa	–	1155.19	–
313.15 K, 7000 kPa	–	1156.45	–
313.15 K, 10000 kPa	–	1158.29	–
313.15 K, 15000 kPa	–	1161.33	–
313.15 K, 20000 kPa	–	1164.23	–
